Values after ≈ are worked out from the molar mass of the structure shown. Read-outs that look alike come from different tables or passages of the source.
Columns and labels:
[1] = Studies using 14C labelled benzyl alcohol: dissipation from injection site and removal from body; format: in vivo
[2] = Solubility of fulvestrant in oil based formulations with and without alcohols (Table 4); format: physicochemical; settings: 25 °C, oil or lipid
[3] = Solubility of fulvestrant in different solvents at 25° C. (Table 2); format: physicochemical
[4] = in vivo; cited from earlier work
[5] = Effect of benzyl benzoate on fulvestrant solubility in castor oil at 25°C (Table 3); format: physicochemical
uterus = settings: intact adult rats, cited from earlier work
[6] = Aqueous solubility of fulvestrant, estimate from a water/solvent mixture; format: physicochemical; settings: estimate from a water/solvent mixture solute
[7] = tested on: uterotrophic action of oestradiol; settings: mice; cited from earlier work
[8] = tested on: human breast cancer cells; settings: human breast cancer cells in vitro; cited from earlier work
[9] = tested on: uterotrophic action of oestradiol; settings: rats; cited from earlier work
hypothalamic ER = settings: in vivo; cited from earlier work
[10] = tested on: uterotrophic action of oestradiol; settings: monkeys; cited from earlier work

## OCc1ccccc1 [benzyl alcohol]
[1]
  dissipation from the injection site: dissipates rapidly
  time to removal from the body after administration: ≤ 24 h

## C[C@]12CC[C@@H]3c4ccc(O)cc4C[C@@H](CCCCCCCCC[S+]([O-])CCCC(F)(F)C(F)(F)F)[C@H]3[C@@H]1CC[C@@H]2O (stereo partly drawn) [fulvestrant, 7α-[9-(4,4,5,5,5-Pentafluoropentylsulphinyl)nonyl]oestra-1,3-5(10)-triene-3,17β-diol]
[2]
  solubility: 70.1 mg/mL (≈ 116 mM)
[2]; Fulvestrant Solubility, Vehicle minus alcohols, Sesame seed oil based, alcohols removed
  solubility: 0.7 mg/mL (≈ 1.15 mM)
[2]; Fulvestrant Solubility, Vehicle minus alcohols, Sesame seed/Castor oil (1:1) based, alcohols removed, 25° C.
  solubility: 4.4 mg/mL (≈ 7.25 mM)
[2]; Arachis oil based oil formulation, complete vehicle, Fulvestrant Solubility, Arachis oil based, ethanol [96%] (10%), benzyl alcohol (10%), benzyl benzoate (15%), oil to volume
  solubility: 40.2 mg/mL (≈ 66.3 mM)
[2]; Arachis oil based oil formulation, vehicle minus alcohols, Fulvestrant Solubility, Arachis oil based, alcohols removed
  solubility: < 0.2 mg/mL
[2]; Castor oil based oil formulation, complete vehicle, Fulvestrant Solubility, Castor oil based, ethanol [96%] (10%), benzyl alcohol (10%), benzyl benzoate (15%), oil to volume
  solubility: 81.2 mg/mL (≈ 134 mM)
[2]; Castor oil based oil formulation, vehicle minus alcohols, Fulvestrant Solubility, Castor oil based, alcohols removed
  solubility: 12.6 mg/mL (≈ 20.8 mM)
[2]; Miglyol 812-N based oil formulation, complete vehicle, Fulvestrant Solubility, Miglyol 812-N based, ethanol [96%] (10%), benzyl alcohol (10%), benzyl benzoate (15%), oil to volume
  solubility: 86.8 mg/mL (≈ 143 mM)
[2]; Miglyol 812-N based oil formulation, vehicle minus alcohols, Fulvestrant Solubility, Miglyol 812-N based, alcohols removed
  solubility: 1.7 mg/mL (≈ 2.8 mM)
[2]; Sesame seed oil based oil formulation, complete vehicle, Fulvestrant Solubility, Sesame seed oil based, ethanol [96%] (10%), benzyl alcohol (10%), benzyl benzoate (15%), oil to volume
  solubility: 45.7 mg/mL (≈ 75.3 mM)
[3]; solvent Arachis oil, 25° C.
  solubility: 0.45 mgml^−1
[3]; solvent Benzyl Alcohol, 25° C.
  solubility: >200 mgml^−1
[3]; solvent Benzyl benzoate, 25° C.
  solubility: 6.15 mgml^−1
[3]; solvent Castor oil, 25° C.
  solubility: 20 mgml^−1
[3]; solvent Ethanol, 25° C.
  solubility: >200 mgml^−1
[3]; solvent Ethyl oleate, 25° C.
  solubility: 1.25 mgml^−1
[3]; solvent Isopropyl myristate, 25° C.
  solubility: 0.80 mgml^−1
[3]; solvent Miglyol 810, 25° C.
  solubility: 3.06 mgml^−1
[3]; solvent Miglyol 812, 25° C.
  solubility: 2.72 mgml^−1
[3]; solvent Sesame oil, 25° C.
  solubility: 0.58 mgml^−1
[3]; solvent Span 85 (surfactant), 25° C.
  solubility: 3.79 mgml^−1
[3]; solvent Water, 25° C., read-out: SOLUBILITY
  solubility: 0.001 mg/mL (≈ 0.00165 mM)
[4]
  crossing of the blood-brain barrier: does not cross the blood-brain barrier
[5]; % w/v: ethanol (96%) 5, benzyl alcohol 5, benzyl benzoate 15, castor oil to 100
  Fulvestrant Solubility: 36 mgml^−1
[5]; % w/v: ethanol (96%) 5, benzyl alcohol 5, no benzyl benzoate, castor oil to 100
  Fulvestrant Solubility: 27 mgml^−1
[5]; % w/v: ethanol (96%) 10, benzyl alcohol 5, benzyl benzoate 15, castor oil to 100
  Fulvestrant Solubility: 54 mgml^−1
[5]; % w/v: ethanol (96%) 10, benzyl alcohol 5, no benzyl benzoate, castor oil to 100
  Fulvestrant Solubility: 46 mgml^−1
[5]; % w/v: ethanol (96%) 10, benzyl alcohol 10, benzyl benzoate 15, castor oil to 100
  Fulvestrant Solubility: 65 mgml^−1
[5]; % w/v: ethanol (96%) 10, benzyl alcohol 10, no benzyl benzoate, castor oil to 100
  Fulvestrant Solubility: 45 mgml^−1
[5]; % w/v: ethanol (96%) 15, benzyl alcohol 15, benzyl benzoate 15, castor oil to 100
  Fulvestrant Solubility: 102 mgml^−1
[5]; % w/v: ethanol (96%) 15, benzyl alcohol 15, no benzyl benzoate, castor oil to 100
  Fulvestrant Solubility: 76 mgml^−1
uterus; at the dose achieving maximum regression of the uterus
  effect on bone density and gonadotrophin secretion: does not adversely affect bone density or lead to increased gonadotrophin secretion
uterus
  regression of the uterus: maximum regression of the uterus
[6]
  aqueous solubility: around 10 ngml^−1
[7]
  block of uterotrophic action of oestradiol: blocks completely
[8]
  block of growth stimulatory action of oestradiol: completely blocks
  potency and effectiveness compared with tamoxifen: more potent and more effective than tamoxifen
[9]
  block of uterotrophic action of oestradiol: blocks completely
Hypothalamic ER
  block of hypothalamic ER: does not block
[10]
  block of uterotrophic action of oestradiol: blocks completely

From patent US20030125387A1 (priority 2000, published 2003)
